This is an account of results in US9045461B2, “Phenyl-heteroaryl derivatives and methods of use thereof” (TransTech Pharma, LLC, priority 2010, dated 2015).

Where a name gives a salt, the structure may show the parent alone.

The target in assay [1] is T1, sRAGE binding to β-amyloid (Homo sapiens, UniProt Q15109).
T1 construct: extracellular domain can be isolated by proteolysis of RAGE to generate soluble RAGE (sRAGE) comprised of the V and C domains
As to the kind of experiment: RAGE binding assay (ELISA), β-amyloid as the RAGE ligand. The conditions noted are these: compounds tested in hydrochloride salt form, concentration at which 50% signal has been inhibited. A digest of the protocol: (§1)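 Ligand (500 ng/well) coated in carbonate buffer pH 9.8 overnight at 4° C and blocked with 1% BSA; test compound (10-100 μM in water, 4% DMSO co-solvent) incubated with sRAGE (6 nM FAC) 1 h at 37° C. Bound sRAGE detected by anti-sRAGE/biotin-anti-mouse/AP-streptavidin with pNPP, A405. IC50 = 50% signal inhibition.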

The target in assay [2] is T2, sRAGE binding to S100b (Homo sapiens, UniProt Q15109).
T2 construct: extracellular domain can be isolated by proteolysis of RAGE to generate soluble RAGE (sRAGE) comprised of the V and C domains
T2 sequence (Q15109 23-342 limits assumed): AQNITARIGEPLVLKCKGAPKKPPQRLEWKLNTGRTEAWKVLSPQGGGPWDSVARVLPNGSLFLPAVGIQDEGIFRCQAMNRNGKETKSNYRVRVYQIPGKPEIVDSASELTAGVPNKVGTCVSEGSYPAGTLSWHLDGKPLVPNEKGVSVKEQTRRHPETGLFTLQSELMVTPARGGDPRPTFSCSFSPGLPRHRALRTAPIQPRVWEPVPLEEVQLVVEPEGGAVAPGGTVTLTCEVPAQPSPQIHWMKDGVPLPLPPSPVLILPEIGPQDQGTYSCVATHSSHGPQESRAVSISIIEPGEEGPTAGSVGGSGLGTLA
In words: RAGE binding assay (ELISA), S100b as the RAGE ligand. To be noted: compounds tested in hydrochloride salt form, concentration at which 50% signal has been inhibited. A digest of the protocol: as §1
A general note: An ELISA detects its analyte on a solid surface through an enzyme-linked reagent.

T1 sequence (Q15109 23-342 limits assumed): as above

A word on the IC50: it is the concentration at which inhibition is half-maximal. Turning to `CCCCc1nnc(C(=O)N[C@H]2CN3CCC2CC3)cc1-c1ccc(OCc2ccccc2)cc1` [Example 83, 5-(4-Benzyloxy-phenyl)-6-butyl-pyridazine-3-carboxylic acid (R)-(1-aza-bicyclo[2.2.2]oct-3-yl)-amide dihydrochloride], the half-maximal inhibitory concentration (IC50) in assay [1] was found to be 1130 nM; in assay [2], 1180 nM.
In the same order, the values of `CCCCc1nnc(C(=O)NC[C@H]2CCCN2CC)cc1-c1ccc(OC2CCCCC2)cc1` [Example 91, 6-Butyl-5-(4-cyclohexyloxy-phenyl)-pyridazine-3-carboxylic acid ((R)-1-ethyl-pyrrolidin-2-ylmethyl)-amide dihydrochloride] are 1390 nM and 1140 nM.
For `CCCCc1nnc(OC2CCN(C)CC2)cc1-c1ccc(OC2CCCCC2)c(NC(C)=O)c1` [Example 62, N-{5-[3-butyl-6-(1-methyl-piperidin-4-yloxy)-pyridazin-4-yl]-2-cyclohexyloxy-phenyl}-acetamide dihydrochloride] the same measures were 5000 nM and 3630 nM.
Consider `CCCCc1nnc(C(=O)N2CCO[C@@H](CN(C)C)C2)cc1-c1ccc(OC2CCCCC2)cc1` [Example 97, [6-Butyl-5-(4-cyclohexyloxy-phenyl)-pyridazin-3-yl]-((S)-2-dimethylaminomethyl-morpholin-4-yl)-methanone dihydrochloride], for which the IC50 in assay [1] came to 1720 nM; in assay [2], 1890 nM.
In the same order, the values of `CCCCc1nnc(OC2CCN(C)CC2)cc1-c1ccc(OC2CCCCC2)c(OC)c1` [Example 73, 3-Butyl-4-(4-cyclohexyloxy-3-methoxy-phenyl)-6-(1-methyl-piperidin-4-yloxy)-pyridazine dihydrochloride] are 1040 nM and 1740 nM.
For `CCCCc1nnc(C(=O)NC[C@@H]2CCCN2CC)cc1-c1ccc(OC2CCCCC2)cc1` [Example 92, 6-Butyl-5-(4-cyclohexyloxy-phenyl)-pyridazine-3-carboxylic acid ((S)-1-ethyl-pyrrolidin-2-ylmethyl)-amide dihydrochloride] the same measures were 1020 nM and 1750 nM.
For `CCCCc1nnc(OC2CCN(C)CC2)c(C(F)(F)F)c1-c1ccc(OC2CCCCC2)cc1` [Example 58, 3-butyl-4-(4-cyclohexyloxy-phenyl)-6-(1-methyl-piperidin-4-yloxy)-5-trifluoromethyl-pyridazine dihydrochloride] the same measures were 760 nM and 740 nM.
As for `CCCCc1nnc(OCCN(CC)CC)cc1-c1ccc(OCc2ccccc2)cc1` [Example 3, {2-[5-(4-Benzyloxy-phenyl)-6-butyl-pyridazin-3-yloxy]-ethyl}-diethyl-amine dihydrochloride], the results for the IC50 in assay [1] and in assay [2] were 2280 nM and 2490 nM, respectively.
For `CCCCc1nnc(OC2CCN(C)CC2)cc1-c1ccc(OC2CCCCC2)c(O)c1` [Example 74, 5-[3-Butyl-6-(1-methyl-piperidin-4-yloxy)-pyridazin-4-yl]-2-cyclohexyloxy-phenol dihydrochloride] the same measures were 1160 nM and 1640 nM.
For `CCCCc1nnc(C(=O)N[C@H]2CC[C@@H](N(C)C)CC2)cc1-c1ccc(OC2CCCCC2)cc1` [Example 95, (±)-(cis)-6-Butyl-5-(4-cyclohexyloxy-phenyl)-pyridazine-3-carboxylic acid (4-dimethylamino-cyclohexyl)-amide dihydrochloride] the same measures were 1050 nM and 690 nM.
Take `CCCCc1nnc(OC[C@H]2CCN(C)C[C@@H]2OC)cc1-c1ccc(OC2CCCCC2)cc1` (racemic) [Example 36, (±)-trans-3-Butyl-4-(4-cyclohexyloxy-phenyl)-6-(3-methoxy-1-methyl-piperidin-4-ylmethoxy)-pyridazine dihydrochloride]: the IC50 in assay [1] and in assay [2] was 960 nM in each case.
Take `CCCCc1nnc(OC2CCN(C)CC2)cc1-c1ccc(OC2CCCCC2)c(NC(=O)NC(C)(C)C)c1` [Example 77, 1-tert-Butyl-3-{5-[3-butyl-6-(1-methyl-piperidin-4-yloxy)-pyridazin-4-yl]-2-cyclohexyloxy-phenyl}-urea dihydrochloride]: the figures for the half-inhibitory concentration (IC50) in assay [1] and in assay [2] were 660 nM and 680 nM, respectively.
For `CCCCc1nnc(OCC[C@@H]2CCCCN2C)cc1-c1ccc(OC2CCCCC2)cc1` [Example 33, 3-butyl-4-(4-cyclohexyloxy-phenyl)-6-[2-((S)-1-methyl-piperidin-2-yl)-ethoxy]-pyridazine dihydrochloride] the same measures were 1480 nM and 2630 nM.
For `CCCCc1nnc(C(=O)NCCN2CCC(O)CC2)cc1-c1ccc(OC2CCCCC2)cc1` [Example 93, 6-Butyl-5-(4-cyclohexyloxy-phenyl)-pyridazine-3-carboxylic acid [2-(4-hydroxy-piperidin-1-yl)-ethyl]-amide dihydrochloride] the same measures were 2510 nM and 1690 nM.
In the same order, the values of `CCCCc1nnc(C(=O)N[C@H]2CCN(C)C[C@H]2O)cc1-c1ccc(OC2CCCCC2)cc1` (racemic) [Example 112, (±)-cis-6-Butyl-5-(4-cyclohexyloxy-phenyl)-pyridazine-3-carboxylic acid (3-hydroxy-1-methyl-piperidin-4-yl)-amide dihydrochloride] are 1470 nM and 1440 nM.
`CCCCc1nnc(C(=O)NCC2CNCCO2)cc1-c1ccc(OC2CCCCC2)cc1` (stereo not drawn) [Example 90, 6-Butyl-5-(4-cyclohexyloxy-phenyl)-pyridazine-3-carboxylic acid (morpholin-2-ylmethyl)-amide dihydrochloride]: the half-maximal inhibitory concentration (IC50) was found to be 1780 nM in assay [1] and 1540 nM in assay [2].
For `CCCCc1nnc(OC2CCN(C)CC2)cc1-c1ccc(OC2CCCCC2)c(N(CC(C)C)C(C)=O)c1` [Example 63, N-{5-[3-butyl-6-(1-methyl-piperidin-4-yloxy)-pyridazin-4-yl]-2-cyclohexyloxy-phenyl}-N-isobutyl-acetamide dihydrochloride] the same measures were 680 nM and 840 nM.
With `CCCCc1nnc(OC[C@H]2CN(C)C[C@@H]2CO)cc1-c1ccc(OCc2ccccc2)cc1` (racemic) [Example 6, (±)-trans-{4-[5-(4-Benzyloxy-phenyl)-6-butyl-pyridazin-3-yloxymethyl]-1-methyl-pyrrolidin-3-yl}-methanol dihydrochloride], the concentration for half-maximal inhibition (IC50) in assay [1] was determined as 2330 nM; in assay [2], 2130 nM.
In the same order, the values of `CCCCc1nnc(OC2CCN(C)CC2)cc1-c1ccc(Oc2ccc(C)nn2)cc1` [Example 57, 3-butyl-6-(1-methyl-piperidin-4-yloxy)-4-[4-(6-methyl-pyridazin-3-yloxy)-phenyl]-pyridazine trihydrochloride] are 4560 nM and 3270 nM.
In the same order, the values of `CCCCc1nnc(C(=O)N[C@@H]2CN3CCC2CC3)cc1-c1ccc(OCc2ccccc2)cc1` [Example 82, 5-(4-Benzyloxy-phenyl)-6-butyl-pyridazine-3-carboxylic acid (S)-(1-aza-bicyclo[2.2.2]oct-3-yl)-amide dihydrochloride] are 1290 nM and 1270 nM.
In the same order, the values of `CCCCc1nnc(OCCCN2CCCCC2)cc1-c1ccc(OCc2ccccc2)cc1` [Example 5, 4-(4-Benzyloxy-phenyl)-3-butyl-6-(3-piperidin-1-yl-propoxy)-pyridazine dihydrochloride] are 6280 nM and 3110 nM.
As to `CCCCc1nnc(OCCCN(CC)CC)cc1-c1ccc(OCc2ccccc2)cc1` [Example 4, 3-[5-(4-Benzyloxy-phenyl)-6-butyl-pyridazin-3-yloxy]-propyl}-diethyl-mine dihydrochloride], the values for the IC50 in assay [1] and in assay [2] were 1240 nM and 1140 nM, respectively.
`CN1CCC(Oc2cc(-c3ccc(OC4CCCCC4)cc3)c(C3CCCCC3)nn2)CC1` [Example 60, 3-cyclohexyl-4-(4-cyclohexyloxy-phenyl)-6-(1-methyl-piperidin-4-yloxy)-pyridazine dihydrochloride]: the results for the IC50 in assay [1] and in assay [2] were 1830 nM and 1130 nM, respectively.
For `CCCCc1nnc(C(=O)N(C)C2CCN(C)CC2)cc1-c1ccc(OC2CCCCC2)cc1` [Example 114, 6-Butyl-5-(4-cyclohexyloxy-phenyl)-pyridazine-3-carboxylic acid methyl-(1-methyl-piperidin-4-yl)-amide dihydrochloride] the same measures were 970 nM and 1080 nM.
